Measurements published in patent US20160090556A1, “PRODUCTS COMPRISING MALODOR REDUCTION MATERIALS” (The Procter & Gamble Company, priority 2014, published 2016).

How the values were obtained:
[1] = Liquid dish neat product liquid-air partition coefficient; format: physicochemical
[2] = Blocker Index (BI) assigned by perfumers/expert graders on isovaleric acid swatches; design: species or system human; key: BI odor strength 0 (lowest, clean swatch) to 3 (highest)
Excerpt: (§1) Blocker materials suitable for use in consumer products of the present invention are chosen for their ability to decrease malodor, while not interfering with perception of a fragrance. Material selection is done by assigning two indices to a test sample material from two reference scales in order to rank odor strengths. The two reference scales are the Fragrance Fidelity Index (FFI) scale and the Blocker Index (BI) scale. The FFI ranks the ability of the test sample material to impart a perceivable odor which could cause interference when combined with another fragrance and the BI ranks the ability of the test sample material to reduce malodor perception. The two methods for assigning the indices to a test sample on the FFI and the BI reference scales are given below.
(§2) The first step in the method for assigning a BI to a test sample material on the BI reference scale is to create the BI reference swatches. […] Fabric swatches for this test are white knit polycotton (4 inch×4 inch) swatches from EMC ordered as PC 50/50. The supplier is instructed to strip the swatches first, stripping involves washing twice with a fragrance-free detergent and rinsing three times.
The BI scale contains one clean swatch with no malodor applied. […] These solutions are pipetted to the middle of the swatches. […] After drying for 30 minutes in a vented hood, the swatches are wrapped in aluminum foil to prevent odor contamination to the treated swatch. A clean untreated swatch is also included as the lowest anchor point of reference for malodor strength on the BI scale. The BI reference scale swatches should be used within 0.5 to 12 hours and discarded after 12 hours. The swatches are used as scale anchor points when graders evaluate a test sample(s) and are assigned a Blocker Index (BI) as show in Table 12.
The perfumer/expert grader is asked to rank order swatches according to a scale between 0 and 3.
The reference swatches represent the 0, 1, 2, and 3 BIs on the BI reference scale, Table 12. The expert grader should familiarizes him/herself with the strength of the odor on the BI reference swatches by sniffing each one starting at 0 (the lowest odor strength) and ending at 3 (the highest odor strength). This should be done prior to evaluating the swatch treated with the test material.
To evaluate the BI, the test material is applied to a malodorous swatch to determine how well the test material blocks the malodor. […] After drying the malodorous swatch a known concentration of test material solution, between 1 ppm and 100 ppm is pipetted onto the malodorous swatch. […] It is sometimes necessary to evaluate several levels of the test material between about 1 and about 100 ppm to determine the BI.
At least two perfumers/expert graders are used to assign the BI to the test sample. […] The test sample swatch is assigned a BI at or between numbers on the BI in table.

[3] = Fragrance Fidelity Index (FFI) assigned by perfumers/expert graders on fabric swatches; design: species or system human; key: FFI grade on reference scale anchored by 0, 1, 2, 3 swatches
Excerpt: as §1
as §2, with “assigning an FFI” for “assigning a BI”, “to the” for “to a”, “test samples” for “test sample material”, “the FFI” for “the BI”
Pipette 13 μL of each of the three solutions into the middle of a clean swatch resulting in about a 1 cm diameter of the solution in the middle of the swatch. This will create a sensory scale of three swatches with three different odor levels based on the concentration of the solution pipetted onto the swatch. After drying for 30 minutes in a vented hood, the swatches are wrapped in aluminum foil to prevent odor contamination to the treated swatch. A clean untreated swatch is also included as the lowest anchor point of reference for odor strength on the FFI scale. The FFI reference scale swatches should be used within 0.5 to 12 hours and discarded after 12 hours. The swatches are used as scale anchor points when graders evaluate a test sample(s) and are assigned a Fragrance Fidelity Index (FFI) as show in Table 7.
The perfumer/expert panel is asked to rank order swatches according to a scale between 0 and 3.
The reference swatches represent the 0, 1, 2, and 3 FFIs on the FFI reference scale, Table 9. The expert grader should familiarize them self with the strength of the odor on the FFI reference swatches by sniffing each one starting at 0 (the lowest odor strength) and ending at 3 (the highest odor strength). This should be done prior to evaluating the test sample material treated swatch.
A clean swatch is treated with 13 μL of a known concentration of a test sample material resulting in an about 1 cm of the solution on the clean swatch. Just like the reference swatches, the test sample material swatch is dried in a vented hood for 30 minutes and then wrapped in aluminum foil to prevent contamination. The test material swatches and the FFI reference swatches should be made within 2 hours of each other. The test material swatch must be used within 0.5 to 12 hours and discarded after 12 hours.
At least two perfumers/expert graders are used to assign an FFI grade to a test sample. The perfumer/expert grader smells the test sample swatch by holding that swatch 1 inch from their nose with their nose centered over the area where the test sample was pipetted on to the fabric and then assigns the test sample an FFI grade using the FFI reference scale anchor swatches as references. In cases where the test sample material is graded greater than 3, the test material is not a blocker material or the concentration of the material needs to be lowered and reevaluated to determine if a lower level has a malodor blocker functionality.

Q: What does the source list for `CC1(C)C2CCC3(C2)C1C(=O)CCC3(C)C` (stereo not drawn) [Material 1149]?
A: Comment Code: Log of liquid dish neat product liquid-air partition coefficient ([1]; code letters K, L): K (Log of liquid dish neat product liquid-air partition coefficient greater than or equal to −7); Comment Code: Log of liquid dish neat product liquid-air partition coefficient ([1]; codes K/L of the Comment Code, Table 1): K (Log of liquid dish neat product liquid-air partition coefficient greater than or equal to −7); BI ([2]; Conc 10 ppm test material on isovaleric acid swatch): 1.5; BI ([2]; Conc 50 ppm test material on isovaleric acid swatch): 2.3; FFI ([3]; Conc 10 ppm test material on swatch): 0; FFI ([3]; Conc 50 ppm test material on swatch): 0.8
